The structures appear in SMILES notation. Bounds are passed on as bounds.

What is called melting point is the temperature, or range, at which the solid turns liquid. In turn, `CCCC1(OC(C)=O)CCC2C3CCC4CC(=O)CC(C)C4(C)C3CCC21C` (stereo not drawn) showed a melting point of 128 to 129 °C.

Regarding `COC(=O)c1ccc(CNC(=O)c2ccc3n2Cc2ccccc2N(C(=O)COc2ccc(Cl)cc2C)C3)cc1`, the melting point was in the range of 165 to 167 °C.

In the case of `COc1cc2c(cc1-c1ccc(F)cc1)C(=CNc1ccc(CN3CCCCC3)cc1)C(=O)NC2=O`, the melting point fell in the range of 227 to 230 °C.

For the compound `COC(=O)c1ccc(Cl)nc1OC`, the melting point lay in the range of 68 to 69 °C.

`N#CCOc1ccc2cc(-c3cnc(-c4cn(Cc5ccccc5)c5ccccc45)o3)ccc2c1` came in with a melting point of 205 to 208 °C.

For `COc1c(Cl)cc2c(Cl)nc(Cl)nc2c1OC`, the melting point was in the range of 154 to 155 °C.

As to `COc1ccc(-n2nc(C#N)cc2-c2ccc(S(C)(=O)=O)cc2)cc1Br`, the melting point lay in the range of 184 to 186 °C.

As for `N#CCCSCc1csc(=O)[nH]1`, the melting point was 108 to 111 °C.

The compound `CC(C)(O)c1cccc(-c2ccc3nc(-c4ccc5cc[nH]c5c4)cn3c2)c1` had a melting point of 203 to 204 °C.

In turn, `CC(C)(C)OC(=O)NC1Cc2ccccc2CC1=O` (single isomer, unassigned; (+)) came in with a melting point of 76 °C.

As for `Nc1cc2nc(O)c(O)nc2c2c1CCCC2`, the melting point is over 300 °C.

For the compound `COc1cc2c(c(O)c1OC)C(Cc1ccc(F)cc1)NCC2` (stereo not drawn), the melting point was 195 to 200 °C.

As for `Cc1ccc(S(=O)(=O)Sc2cc(C)c(NC(=O)OC(C)(C)C)cc2C(C)(C)C)cc1`, the melting point lay in the range of 106 to 108 °C.

In the case of `CC(C)(C)NC(=O)c1cccc(C(=O)O)c1O`, the melting point was 191 to 195 °C.

In the case of `O=C(c1ccc(F)cc1)N1CCC[C@H](c2nc(-c3ccccc3)no2)C1`, the melting point lay in the range of 78 to 79 °C.

Regarding `CCN(CC)CCNC(=O)c1nc2ccc(I)cc2[nH]1`, the melting point lay within 136 to 138 °C.

Compound `O=C(O)COC1=C(C(=O)Nc2cc(Cl)cc(Cl)c2)SC2=NCCCN21` registered a melting point of 247 °C.

The compound `O=C(Nc1cccc(O)c1)c1ccc(CSc2ccc(O)cc2)cc1` gave a melting point of 218 to 222 °C.

`N#Cc1ccccc1OCC1CN=C(N)O1` (stereo not drawn) had a melting point of 146 °C.

As for `O=C(O)CCCCCn1nnnc1S`, the melting point was 100 °C.

Compound `COc1cccc2c1SCCC2=O` displayed a melting point of 110 °C.

The compound `CCOC(=O)c1cn(-c2cc(NC(=O)OCc3ccccc3)c(F)cc2F)c2cc(F)c(F)c(C)c2c1=O` returned a melting point of 202 to 204 °C.

Turning to `O=C1CCC(N2Cc3cc(CNC(=O)Nc4cccc5ccccc45)ccc3C2=O)C(=O)N1` (stereo not drawn), the melting point lay in the range of 250 to 252 °C.

As to `COc1ccc(-c2[nH]c3cn[nH]c(=O)c3c2Cl)cc1OCC1CC1`, the melting point was 256 to 258 °C.

The compound `C=CCn1c(C)nc2c(O)c(C(=O)[C@@H]3OC(C)(C)O[C@H]3c3ccccc3)ccc21` gave a melting point of 123 °C.

`CCCn1nc(OCc2ccc3ccccc3n2)cc1COc1c(CC)cccc1CC(=O)O`: the melting point fell in the range of 118 to 119 °C.

In turn, `Cc1nnc(C(=O)CCCCCCOc2ccc(OCc3ccccc3)cc2)o1` yielded a melting point of 118 to 120 °C.

Take `Cc1cc(-c2ccc(C(F)(F)F)cc2)cnc1N`: the melting point was 74 °C.

With `COC(=O)C1(C(=O)OC)Cc2cc(Br)ccc2N1`, the melting point lay within 113 to 155 °C.

The compound `Cc1nnc(-c2cc3c(-c4ccccc4Cl)coc3cn2)o1` displayed a melting point of 162 to 163 °C.

Consider `COc1ccc(C(=O)Nc2cccnc2)cc1NC(=S)Nc1ccc(Cl)c(Cl)c1`, for which the melting point lay in the range of 179 to 180 °C.

For the compound `O=S(=O)(c1cc(Br)c(-c2ccc(Cl)cc2)[nH]1)C(F)(F)F`, the melting point fell in the range of 155 to 159 °C.

As for `CCOC(=O)Cc1ccc(-c2ccc(F)cc2F)c(F)c1`, the melting point is 50 to 52 °C.

Consider `O=C1N(Cc2noc(C(F)(F)F)n2)c2ccccc2C12COc1cc3c(cc12)OCO3` (stereo not drawn), for which the melting point fell in the range of 139 to 140 °C.

With `CC(O)CNc1nc(C2C(=O)Nc3ccc(Br)cc32)c2cn(C)nc2n1` (stereo not drawn), the melting point is 298 to 301 °C.

`COC(=O)C1=C(C#N)NC(C)=C(P2(=O)OCCCO2)C1c1ccccc1[N+](=O)[O-]` (stereo not drawn) had a melting point of 228 to 229 °C.

`CC1(C2CCCC2)Cc2cc(OCCBr)c(Cl)c(Cl)c2C1=O` (stereo not drawn) returned a melting point of 124 to 125 °C.

Regarding `C#CCN1C(=O)c2ccccc2C1OC` (stereo not drawn), the melting point is 85 to 87 °C.

`COC(=O)CSc1nc(Nc2ccc(N3CCC(C)CC3)cc2)ncc1[N+](=O)[O-]`: the melting point was in the range of 180 to 184 °C.

`CC(C)N(CCCC1CCN(CCNC(=O)N2c3ccccc3C(=O)Nc3cccnc32)CC1)C(C)C`: the melting point turned out to be 184 °C.

Compound `NCCc1ccc(-n2cnc3cnc4ccc(Cl)cc4c32)cc1` yielded a melting point of 140 to 141 °C.

`CCN1CCCC(CC)(c2ccc(Nc3ncc4ccc(-c5ccccc5OC)n4n3)cc2)C1` (stereo not drawn) registered a melting point of 69 to 78 °C.

In the case of `C(#CCN(Cc1ccccc1)Cc1ccccc1)CN(Cc1ccccc1)Cc1ccccc1`, the melting point was in the range of 105 to 106 °C.

Regarding `Cc1oc(-c2ccccc2)nc1CCOc1ccc(CCl)c2sccc12`, the melting point fell in the range of 144 to 145 °C.

`FC(F)(F)CSc1nc(-c2ccc(Cl)cc2)c(-c2ccc(Cl)cc2)[nH]1` displayed a melting point of 212 to 213 °C.

As to `COc1ccc(-c2cc3nc(N4CCOCC4)c4ccccc4c3nn2)cc1`, the melting point lay in the range of 218 to 220 °C.

`COc1cn(-c2ccc(I)cc2F)nc(C(C)=O)c1=O` yielded a melting point of 196 to 198 °C.

`CCN(CC)C(=O)c1nn(-c2cccc(OC)c2)c(=O)c2c1c1ccc(Cl)cc1n2C` displayed a melting point of 208 °C.

The compound `CC(=O)CCC(=O)Nc1cc(CO)cc(Nc2c3ccccc3nc3ccccc23)c1` displayed a melting point of 197 to 199 °C.

On to `O=C(O)CCn1ccn(C2CCc3ccccc3C2)c1=S` (stereo not drawn), for which the melting point lay in the range of 167 to 168 °C.

The compound `Cn1c(CC(=O)O)c(C(=O)O)c(Br)c1C(=O)c1ccc(Cl)cc1` yielded a melting point of 261 to 263 °C.

Compound `COc1ccc(N2CCN(c3ccc(NC4=NCC(OC)S4)cc3)CC2)cc1` (stereo not drawn) came in with a melting point of 178 °C.

Consider `CCn1nc(C)c2c(Cl)c(CCl)cnc21`, for which the melting point lay in the range of 96 to 97 °C.

`COc1ccc(-c2c(Cl)ncn2-c2ccc(S(C)(=O)=O)cc2)cc1F`: the melting point is 196 °C.

Turning to `Oc1cc2c(cc1O)-c1ccccc1C2`, the melting point lay within 155 to 156 °C.

`CC(C)(C)OC(=O)CNC(=O)c1nc2cc(Cl)ccc2o1` registered a melting point of 152 to 154 °C.

As for `Cc1ccc(S(=O)(=O)N2CCCC2c2ccsc2)cc1` (racemic), the melting point came out at 114 °C.

`COc1ccc(-c2nc(O)cc(O)n2)cc1` registered a melting point of 318 °C.

`COc1ccc(N(Cc2cc(C(C)(C)C)c(O)c(C(C)(C)C)c2)S(=O)(=O)c2ccc(C)cc2)cn1`: the melting point fell in the range of 127 to 129 °C.

Regarding `CN1CC(CCCN2CCN(c3ccccc3O)CC2)OC1=O` (stereo not drawn), the melting point lay in the range of 112 to 116 °C.

`O=c1ccc(-c2ccc(OCC(O)CN3CCCCC3)cc2)n[nH]1` (stereo not drawn) gave a melting point of 185 °C.

Compound `CNc1nc(Nc2ccc(Cl)c(Cl)c2)ncc1NS(=O)(=O)Cc1ccccc1` had a melting point of 233 to 235 °C.

Turning to `CC(=NOc1ccc(C=O)cc1)c1ccc(C)cc1`, the melting point was 96 to 98 °C.

Compound `CSc1nc(Cl)cc(P(C)(C)=O)n1` came in with a melting point of 172 to 182 °C.

As for `CC(C)(C)OC(=O)N(N)Cc1ccc(-c2ccccc2)cc1`, the melting point lay in the range of 84 to 85 °C.

As for `Cc1coc2c1C(=O)CC(c1cccs1)C2` (stereo not drawn), the melting point lay in the range of 81 to 82 °C.

Consider `CC(C)(C)OC(=O)CC[C@@H](NC(=O)OCc1ccccc1)C(N)=O`, for which the melting point lay in the range of 138 to 140 °C.

As for `Nc1ccc(-n2ccnc2S(=O)Cc2ccccc2N2CCOCC2)nc1` (stereo not drawn), the melting point was in the range of 190 to 192 °C.

Compound `CC(=O)OC1CSC(Oc2ccc(C#N)nc2C)C(OC(C)=O)C1OC(C)=O` (stereo not drawn) returned a melting point of 128 to 131 °C.

As to `Cc1cc(CCCCCOc2c(C)cc(-c3nc(C)no3)cc2C)on1`, the melting point is 54 to 56 °C.

With `CC(C)(C)OC(=O)N1CC(=O)Nc2ccccc21`, the melting point lay within 143 to 144 °C.

For `CN1CCN(c2ccc(Nc3nccc(-c4c[nH]nc4-c4ccc(Cl)cc4)n3)cc2)CC1`, the melting point lay in the range of 282 to 284 °C.

`CCc1cn(C2CC(O)C(CNC(=O)Cc3c(Cl)cccc3Cl)O2)c(=O)[nH]c1=O` (stereo not drawn) had a melting point of 296 to 297 °C.

In the case of `COCOc1ccc(-n2cc(C(=O)O)c(=O)cc2-c2ccc(N(C)C)cc2)cc1`, the melting point fell in the range of 150 to 152 °C.

With `COc1cccc2c1C(=O)N(CCl)S2(=O)=O`, the melting point fell in the range of 169 to 174 °C.

Take `N#Cc1nc(Cl)nc(N2CCS(=O)CC2)c1Cl`: the melting point lay within 145 to 147 °C.

In turn, `CC(=O)NC1C(OCc2ccccc2)OC(COCc2ccccc2)C(OCc2ccccc2)C1OCC(=O)O` (stereo not drawn) registered a melting point of 128 to 129 °C.

Regarding `Cc1nc2ccc(C(C)(C)CNC=O)cc2[nH]1`, the melting point is 57 to 60 °C.

In turn, `COP(=O)(CC(=O)COc1ccc(Cl)cn1)OC` had a melting point of 37 to 40 °C.

On to `CC(=O)Nc1ccc(Oc2ccc3c(c2)OCC(=O)N3)cc1`, for which the melting point was in the range of 230 to 232 °C.

Regarding `O=c1c2c(Cc3ccc(F)cc3)n[nH]c2c2cccnc2n1-c1ccccc1`, the melting point was in the range of 271 to 274 °C.

`CCOC(=O)c1ccc(NCc2ccc3ccc4nc(C)[nH]c(=O)c4c3c2)cc1F` had a melting point of over 200 °C.

Turning to `Cn1cc(CN2CCN(CCOc3ccc(C=C4SC(=O)NC4=O)cc3)CC2)c2ccccc21`, the melting point is 183 to 188 °C.

On to `COC(=O)c1c(Cc2ccc(C(=O)O)cc2)c(=O)c2ccc(Cl)cc2n1-c1ccccc1`, for which the melting point fell in the range of 258 to 261 °C.

In turn, `O=C(O)C=CC(=O)c1ccco1` registered a melting point of 153 to 155 °C.

The compound `O=C(O)C1(c2ccc(Nc3nc(N4CCOCC4)nc4c3CCC4)cc2)CCC1` had a melting point of 279 to 281 °C.

With `Cc1cc(C)c([Si]2(c3c(C)cc(C)cc3C)C(=O)C(c3ccccc3)=C(c3ccccc3)C(=O)[Si]2(c2c(C)cc(C)cc2C)c2c(C)cc(C)cc2C)c(C)c1`, the melting point lay within 67 to 68 °C.

In turn, `O=C(NC1CC1)c1ccc(-c2ccc3nnn(Cc4ccc5ncccc5c4)c3n2)cc1Cl` yielded a melting point of 197 to 199 °C.

The values above are taken from a melting point compilation (Tetko et al.; mined from patent text by program, amines drawn as free bases though some values may be those of a salt).
